# System: hPSC21/MiaPaca2 co-culture
# Experiment: Co-culture of RFP-labelled MiaPaca2 cancer cells and GFP-labelled hPSC21 stellate cells, kinetic fluorescence imaging
# Type: cell-based, Human
# Text: Pancreatic ductal adenocarcinoma (PDAC) MiaPaca2 cancer cells were transduced with Nuclight Red lentiviral reagent to stably express RFP. Human pancreatic stellate cells 21 (hPSC21) were transduced with the Nuclight Green lentiviral reagent to stably express GFP. Both cell lines were cultures in a 2:1 hPSC21/MiaPaca2 ratio in a 384-well ultra-low attachment plate and treated with the Rho-kinase inhibitor Y-27632, an inducer of a cancer associated fibroblast (CAF) like phenotype of stellate cells (Li et al., Aging, 2020). The cells were incubated at 37° C./5CO2 in the Tecan Spark Cyto multimode plate reader with imaging capabilities and BF, red and green fluorescent images were taken every hour for 48 hours.
smiles,measurement,setting,value
C[C@@H](N)[C@H]1CC[C@H](C(=O)Nc2ccncc2)CC1 [Y-27632],morphology versus control sample,"2:1 hPSC21/MiaPaca2, 384-well ultra-low attachment plate, imaged every hour for 48 hours (FIG. 7D)",activation and migration of hPSC21 towards the PDAC cancer cells
same,velocity of the objects inside the well,"2:1 hPSC21/MiaPaca2 co-culture, imaged every hour for 48 hours (FIG. 7B)",increased
same,number of merges of the objects inside the well,"2:1 hPSC21/MiaPaca2 co-culture, imaged every hour for 48 hours (FIG. 7C)",increased

# From patent US20240230626A9, “METHOD FOR SCREENING POTENTIAL THERAPEUTIC AGENTS” (UNIVERSITEIT ANTWERPEN, priority 2021, published 2024)
